From PMC8036666, “Biological and Physico-Chemical Characteristics of Arginine-Rich Peptide Gemini Surfactants with Lysine and Cystine Spacers” (International Journal of Molecular Sciences, 2021)
Converted amounts (≈) assume the structure as drawn. “And” between values parts separate entries of the source, which are not always exact repeats. Equal values may be shown once. Where a SMILES comes first, the peptide text is derived from it. Bridges are numbered along the chain shown (N, C = ends). Roman numbers before positions name the chains, in order. Side-chain parts run from the residue outwards. The star is where a group is joined. Lauroyl = CCCCCCCCCCCC(=O)*; Octanoyl = CCCCCCCC(=O)*

Experiments:
[1] = test system: Acinetobacter baumannii ATCC BAA 1605; conditions: ATCC BAA 1605, 24 h
Method: (§1) The Acinetobacter baumannii ATCC BAA-1605, Enterococcus faecium ATCC 700221, Escherichia coli ML-35 ATCC 43827, Klebsiella aerogenes ATCC 13048, Klebsiella pneumoniae ATCC 700603, Pseudomonas aeruginosa ATCC 9027, Staphylococcus aureus ATCC 25923, Staphylococcus aureus ATCC 33591, Candida albicans ATCC 10231, Candida glabrata ATCC 15126, strains were acquired from the American Type Culture Collection (ATCC). All the strains were stored at −80 °C in Roti-Store cryo vials and before the tests were transferred into fresh Mueller–Hinton broth (MHB, Biocorp, Warsaw, Poland) for bacteria or RPMI-1640 (Sigma-Aldrich, Steinheim, Germany) for fungi and incubated for 24 h at 37 °C. Then, the cultures were seeded on the Mueller–Hinton agar (BioMaxima, Lublin, Poland) or Sabouraud dextrose agar (SDA, BioMaxima, Lublin, Poland) plates, respectively, and incubated as just mentioned. These agar cultures were used for further microbiological assays. Cell densities for all assays were adjusted spectrophotometrically (Multiskan GO Microplate Spectrophotometer, Thermo Fisher Scientific, Vantaa, Finland) at 600 and 530 nm for bacteria and fungi, respectively.
(§2) The MICs were determined by the broth microdilution method according to the Clinical and Laboratory Standard Institute guidelines. […] The experiments were conducted on 96-well microtiter polystyrene plates (Kartell, Noviglio, Italy). The growth was assessed visually after incubation, and the MIC was assumed as the lowest peptide concentration at which a noticeable growth of microorganisms was inhibited. All experiments were conducted in triplicate.

[2] = test system: Pseudomonas aeruginosa ATCC 9027; conditions: ATCC 9027, 24 h
Method: as §1, §2

[3] = test system: Klebsiella pneumoniae ATCC 700603; conditions: ATCC 700603, 24 h
Method: as §1, §2

[4] = test system: Staphylococcus aureus ATCC 25923; conditions: ATCC 25923, 24 h
Method: as §1, §2

[5] = test system: Enterococcus faecium ATCC 700221; conditions: ATCC 700221, 24 h
Method: as §1, §2

[6] = test system: Klebsiella aerogenes ATCC 13048; conditions: ATCC 13048, 24 h
Method: as §1, §2

[7] = Critical aggregation concentration by surface tension (Du Noüy ring, K100 tensiometer); type: physicochemical; conditions: for CAC / Surface Tension at CAC: unbuffered aqueous solution, 298 K
Method: (§3) The identity of the purified peptides was confirmed with electrospray ionization mass spectrometry (ESI-MS) in positive ion mode. Results of MS analyses and net charge are attached in Supplementary Materials (Table S1). Peptides’ hydrophobicity was evaluated by analytical reversed-phase high-performance liquid chromatography (RP-HPLC). The critical aggregation concentrations (CACs) of the lipopeptides were determined in unbuffered aqueous solution at 298 K by measuring the surface tension as a function of lipopeptide concentration. The measurements were carried out by the Du Noüy ring method on a K100 tensiometer. The surface tension data were plotted against the logarithm of lipopeptide concentration. CAC was found as the intersection of two lines being linear regression of data below and above CAC.
The critical aggregation concentration (CAC) values were determined fully automatically using a K100 tensiometer (KRUSS, Hamburg, Germany) equipped with two micro dosimeters by measuring the surface tension vs. lipopeptide concentration. The measurements were performed in unbuffered aqueous solution at 298 K using the Du Noüy ring method. The accuracy of the surface tension measurements was 0.1 mN/m. The critical aggregation concentration (CAC) was defined as the intersection of two lines fitted to the experimental data collected before and after the inflection point.

[8] = test system: Staphylococcus aureus ATCC 33591; type: cell-based; conditions: ATCC 33591, 24 h
Method: (§4) Biofilm is associated with life-threating infections due to its outstanding resistance to antibiotics. In this study, the antibiofilm characteristics of USCLs and gemini surfactants were evaluated.
(§5) The MBECs were determined as described previously using 96-well polystyrene flat-bottom plates. For this purpose, 24 h cultures of microorganisms were diluted to obtain a final density of 5.0 × 10^5 CFU/mL and 2.0 × 10^5 CFU/mL of bacteria and fungi, respectively. Microorganisms were diluted in MHB or RPMI-1640 with 2% D-glucose (bacteria and fungi, respectively). Briefly, 100 µL of cell suspension was added into the test plates. After 24 h of incubation at 37 °C, the wells were rinsed three times with a PBS (pH 7.4) to remove non-adherent cells. Subsequently, 100 μL of the test compounds in a concentration range (1–512 μg/mL) were added to each well. After 24 h of incubation at 37 °C, 20 μL of a cell viability reagent was added (resazurin, 4 g/L; Sigma Aldrich, St. Louis, MO, USA). The MBEC was read after 1 h. The determined values were recorded as the lowest concentration at which the reduction of resazurin (from blue to pink) was lower or equal to 10 ± 0.5% as compared to the positive (100%) and negative (0%) controls. The reduction was monitored by measuring absorbance at 570 nm (reduced) and 600 nm (oxidized) using a microplate spectrophotometer (Multiskan GO Microplate Spectrophotometer, Thermo Fisher Scientific, Vantaa, Finland). All experiments were conducted in triplicate.

[9] = test system: Acinetobacter baumannii ATCC BAA 1605; type: cell-based; conditions: ATCC BAA 1605, 24 h
Method: as §4, §5

[10] = test system: Candida glabrata ATCC 15126; type: cell-based; conditions: ATCC 15126, 24 h
Method: as §4, §5

[11] = test system: Staphylococcus aureus ATCC 25923; type: cell-based; conditions: ATCC 25923, 24 h
Method: as §4, §5

[12] = test system: Klebsiella aerogenes ATCC 13048; type: cell-based; conditions: ATCC 13048, 24 h
Method: as §4, §5

[13] = Lipopeptide hydrophobicity by RP-HPLC (adjusted retention time); type: physicochemical; conditions: for Adjusted Retention Time: RP-HPLC, 20–65% acetonitrile over 30 min, indicator of hydrophobicity; for Difference in retention time calculated as tR’C—tR’B: between corresponding surfactants of series C and B
Method: as §3
Lipopeptide hydrophobicity was determined as described previously. To do this, a Waters Alliance e2695 system with a Waters 2998 PDA Detector (software-Empower 3, Waters, Milford, MA, USA) was used. All analyses were carried out on a Waters X-Bridge Shield RP-18 column (3.0 × 100 mm, 3.5 μm particle size, 130 Å pore size). The Shield Technology column with embedded polar groups was used to minimize interactions of unreacted silanol groups with basic lipopeptides. The peptides were dissolved in water (0.1% TFA, v/v) up to a concentration of 1 mg/mL. UV detection at 214 nm was used, and samples (10 μL) were eluted with a linear 20–65% acetonitrile gradient in deionized water over 30 min at 25.0 ± 0.1 °C. The mobile phase flow rate was 0.5 mL/min. Both eluents contained 0.1% (v/v) of TFA. Each peptide sample was analyzed in triplicate. The maximum standard deviation and coefficient of variation were 0.044 and 0.85%, respectively.

Row | SMILES | MIC Acinetobacter baumannii ATCC BAA 1605 [1] | MIC Pseudomonas aeruginosa ATCC 9027 [2] | MIC Klebsiella pneumoniae ATCC 700603 [3] | MIC Staphylococcus aureus ATCC 25923 [4] | MIC Enterococcus faecium ATCC 700221 [5] | MIC Klebsiella aerogenes ATCC 13048 [6] | CAC [7] | Surface Tension at CAC [7] | MBEC Staphylococcus aureus ATCC 33591 [8] | MBEC Acinetobacter baumannii ATCC BAA 1605 [9] | MBEC Candida glabrata ATCC 15126 [10] | MBEC Staphylococcus aureus ATCC 25923 [11] | MBEC Klebsiella aerogenes ATCC 13048 [12] | Adjusted Retention Time [13] | Difference in retention time calculated as tR’C—tR’B [13] | increase in the CAC value by branching of the acyl chains ([7]; C7 compared with C3)
1 | CCCCCCCC(=O)N[C@@H](Cc1ccccc1)C(=O)N[C@@H](CCCNC(=N)N)C(=O)N[C@@H](CCCNC(=N)N)C(=O)NCCCC[C@H](NC(=O)[C@H](CCCNC(=N)N)NC(=O)[C@H](CCCNC(=N)N)NC(=O)[C@H](Cc1ccccc1)NC(=O)CCCCCCC)C(N)=O [Compound B5] (Octanoyl-FRRK([Arg-Arg-Phe-Octanoyl])-NH2) | 32 µg/mL (≈ 24.3 µM) | 8 µg/mL (≈ 6.08 µM) | 128 µg/mL (≈ 97.2 µM) | 2 µg/mL (≈ 1.52 µM) | 4 µg/mL (≈ 3.04 µM) | 256 (−/−) µg/mL | 2.47 mM and 3247.9 μg/mL | 39 mN/m | 4 µg/mL | 256 µg/mL | 256 µg/mL | 16 µg/mL | 256 µg/mL | 15.19 min | – | –
2 | CCCCCCCCCCCC(=O)N[C@@H](CCCNC(=N)N)C(=O)N[C@@H](CCCNC(=N)N)C(=O)N[C@@H](CSSC[C@H](NC(=O)[C@H](CCCNC(=N)N)NC(=O)[C@H](CCCNC(=N)N)NC(=O)CCCCCCCCCCC)C(N)=O)C(N)=O [Compound C3] (I: Lauroyl-Arg-Arg-Cys-NH2 / II: Lauroyl-Arg-Arg-Cys-NH2; disulfide I:3-II:3) | 64 µg/mL (≈ 52.1 µM) | 8 µg/mL (≈ 6.52 µM) | >256 (−/−) µg/mL | 4 µg/mL (≈ 3.26 µM) | 2 µg/mL (≈ 1.63 µM) | 32 µg/mL (≈ 26.1 µM) | 0.25 mM and 305.4 μg/mL | 43 mN/m | 32 µg/mL | 512 µg/mL | 128 µg/mL | 128 µg/mL | 256 µg/mL | 19.24 min | 0.15 min | –
3 | CCCCCCC(CCCC)C(=O)N[C@@H](CCCNC(=N)N)C(=O)N[C@@H](CCCNC(=N)N)C(=O)N[C@@H](CSSC[C@H](NC(=O)[C@H](CCCNC(=N)N)NC(=O)[C@H](CCCNC(=N)N)NC(=O)C(CCCC)CCCCCC)C(N)=O)C(N)=O (some centres unmarked) [Compound C7] | 32 µg/mL (≈ 26.1 µM) | 4 µg/mL (≈ 3.26 µM) | 32 µg/mL (≈ 26.1 µM) | 2 µg/mL (≈ 1.63 µM) | 2 µg/mL (≈ 1.63 µM) | 16 µg/mL (≈ 13 µM) | 6.21 mM and 7628.1 μg/mL | 35 mN/m | 8 µg/mL | 256 µg/mL | 128 µg/mL | 32 µg/mL | 128 µg/mL | 14.83 min | 0.15 min | ca. 25 fold
4 | CCCCCCCCCCCC(=O)N[C@@H](CCCNC(=N)N)C(=O)N[C@@H](CCCNC(=N)N)C(=O)NCCCC[C@H](NC(=O)[C@H](CCCNC(=N)N)NC(=O)[C@H](CCCNC(=N)N)NC(=O)CCCCCCCCCCC)C(N)=O [Compound B3] (Lauroyl-Arg-Arg-Lys([Arg-Arg-Lauroyl])-NH2) | 8 µg/mL (≈ 7.05 µM) | 4 µg/mL (≈ 3.53 µM) | 64 µg/mL (≈ 56.4 µM) | 4 µg/mL (≈ 3.53 µM) | 2 µg/mL (≈ 1.76 µM) | 32 µg/mL (≈ 28.2 µM) | 0.87 mM and 987.3 μg/mL | 41 mN/m | 16 µg/mL | 256 µg/mL | 64 µg/mL | 64 µg/mL | 128 µg/mL | 19.09 min | – | –
